Assay [1] has as its target T1, Human Neuropeptide Y2 Receptor (Homo sapiens, UniProt P49146).
T1 construct: purchased CHEMICON HTS066M
T1 sequence (P49146 1-381): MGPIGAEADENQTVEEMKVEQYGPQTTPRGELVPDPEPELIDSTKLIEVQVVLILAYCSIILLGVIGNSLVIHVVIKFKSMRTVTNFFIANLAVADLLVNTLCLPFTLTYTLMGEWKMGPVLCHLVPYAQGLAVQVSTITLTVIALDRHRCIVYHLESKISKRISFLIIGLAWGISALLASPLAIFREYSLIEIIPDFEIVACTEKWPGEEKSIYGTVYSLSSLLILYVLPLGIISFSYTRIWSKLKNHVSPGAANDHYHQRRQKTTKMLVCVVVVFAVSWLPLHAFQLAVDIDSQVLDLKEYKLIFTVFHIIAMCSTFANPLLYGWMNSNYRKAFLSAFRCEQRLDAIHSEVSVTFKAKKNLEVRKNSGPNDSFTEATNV
In words: Radioligand binding competition assay (RLB). The conditions noted are these: for pKi: Table 3, human 125I-PYY (1-36) 0.02 nM, Y2 receptor membranes, read-out: Ki; for Ki: Table 8, from DMSO stock, read-out: hY2R RLB Ki (nM) DMSO. An outline of the steps: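 Membranes (0.5 μg/well) and test peptides, serially diluted from 1 mM DMSO stocks, were incubated 2 hours at room temperature in HEPES buffer pH 7.4 with Mg, Ca and ovalbumin.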

The target of assay [2] is T1, Human Neuropeptide Y2 Receptor. In words: Activity (RLB) after incubation in solutions at different pH values. In kind it is binding. The following applies: apparent Ki of filtrate after 2 h in buffer. As to the method: The filtration RLB assay was carried out in 96-well plates in a final volume of 100 μl per well. Freeze-dried test peptides were dissolved in 100% dimethyl sulfoxide (DMSO) to stock solutions of 1 mM and serial dilutions were performed in assay buffer (50 mM HEPES, 5 mM MgCl2, 1 mM CaCl2), pH 7.4) containing 0.2% ovalbumin. […] Next, 80 μL membranes (HTS066M, ChemiSCREEN™ Human Neuropeptide Y2 Receptor Membrane Preparation, CHEMICON) were added to each well to give a final protein concentration of 0.5 μg/well. The plates were sealed and incubated at room temperature for 2 hours in a plate shaker set at 400 rpm. The incubation was stopped by vacuum filtration onto 0.5% poly-ethylene amine (PEI) presoaked GF/C filters using a 96-well FilterMate™ harvester (Perkin Elmer) followed by four washes with 300 μl/well ice-cold wash buffer (50 mM HEPES, 500 mM NaCl, pH7.4). Filter plates were then dried for 60 min at room temperature and the bottom of the plates was sealed with backing tape UniFilter-96. Finally, 50 μl/well scintillation counter cocktail (Microscint20, Packard) was added and the radioactivity was counted in the Packard TopCount NXT scintillation counter. IC50 values (the half maximal inhibitory concentration of the agonist) were calculated by nonlinear regression analysis of sigmoidal dose-response curves.
Peptides (as TFA salts) were weighed out in a filter unit (Mini-UniPrep Syringeless Filter 0.45 μm, Whatman), and 0.1 M sodium diphosphate buffer at pH 6.4 or 7.4, respectively, or 0.2 M TRIS buffer at pH 8.3 was added to achieve 10 mg/ml final concentration. The peptide was (partially) dissolved by shaking the filter unit horizontally at approx. 400 rpm for 2 hours at room temperature. The sample was filtered to remove any insoluble particles.

The mark [3] stands for this setting: pH6.1-6.2, assumed 10 mg/ml, read-out: RLB 6 (pH6.1-6.2).
[4] abbreviates: pH7.1-7.2, assumed 10 mg/ml, read-out: RLB 7 (pH7.1-7.2).

pKi: −log10 of the molar value. *1 amine or outer side, *2 acyl side, *3 side chain or, on linkers, in order; H or OH if unused. Where a SMILES comes first, the peptide text is derived from it. Side-chain parts run from the residue outwards. The star is where a group is joined. C18 diacid = O=C(O)CCCCCCCCCCCCCCCCC(=O)*; γGlu = O=C(O)[C@H](CCC(=O)[*:2])N[*:1]; Isovaleryl = CC(C)CC(=O)*; AEEA = NCCOCCOCC(=O)O

In general, Ki refers to the equilibrium dissociation constant of an inhibitor or competing ligand from its target. As for `CC(C)CC(=O)N[C@@H](C)C(=O)N1CCC[C@H]1C(=O)N[C@@H](CCC(=O)O)C(=O)N[C@@H](CCCCNC(=O)COCCOCCNC(=O)COCCOCCNC(=O)CC[C@H](NC(=O)CCCCCCCCCCCCCCCCC(=O)O)C(=O)O)C(=O)N1CCC[C@H]1C(=O)N[C@@H](CCC(=O)O)C(=O)N[C@@H](C)C(=O)N1CCC[C@H]1C(=O)N[C@@H](C)C(=O)N[C@@H](CO)C(=O)N1CCC[C@H]1C(=O)N[C@@H](CCC(=O)O)C(=O)N[C@@H](CCC(=O)O)C(=O)N[C@@H](CC(C)C)C(=O)N[C@@H](CCC(N)=O)C(=O)N[C@@H](CCCNC(=N)N)C(=O)N[C@@H](Cc1ccc(O)cc1)C(=O)N[C@@H](Cc1ccc(O)cc1)C(=O)N[C@H](C(=O)N[C@@H](CCC(=O)O)C(=O)N[C@@H](CC(C)C)C(=O)N[C@@H](CCCNC(=N)N)C(=O)N[C@@H](Cc1c[nH]cn1)C(=O)N[C@@H](Cc1ccc(O)cc1)C(=O)N[C@@H](Cc1ccc(O)cc1)C(=O)N[C@@H](CC(N)=O)C(=O)N[C@@H](Cc1c[nH]c2ccccc12)C(=O)N[C@@H](CC(C)C)C(=O)N[C@H](C(=O)N[C@@H](CCCNC(=N)N)C(=O)N[C@@H](CCC(N)=O)C(=O)N[C@@H](CCCNC(=N)N)C(=O)N[C@@H](Cc1ccc(O)cc1)C(N)=O)[C@@H](C)O)C(C)C` [Compound 29, N{alpha-4}-(3-methylbutanoyl)-N{epsilon-7}-[2-(2-{2-[2-(2-{2-[(4S)-4-carboxy-4-(17-carboxyheptadecanamido)butanamido]ethoxy}ethoxy)acetamido]ethoxy}ethoxy)acetamido]-[4A,7K,9E,10A,11P,18Q,22V,23E,28Y,30W,31L]hPYY (4-36)] (Isovaleryl-APEK([AEEA-AEEA-γGlu-C18 diacid])PEAPASPEELQRYYVELRHYYNWLTRQRY-NH2), the pKi is 9.54 in assay [1]; 8.42 in assay [2] (setting [3]); 8.36 in assay [2] (setting [4]); 8.64 in assay [2] (pH8.1-8.2, assumed 10 mg/ml, read-out: RLB 8 (pH8.1-8.2)). Moreover, in assay [1], the Ki amounted to 4.6 nM.
`CC[C@H](C)[C@H](NC(=O)[C@H](CCC(=O)O)NC(=O)[C@H](CCC(=O)O)NC(=O)[C@@H]1CCCN1C(=O)[C@H](CO)NC(=O)[C@H](C)NC(=O)[C@H](CC(=O)O)NC(=O)[C@H](CCC(=O)O)NC(=O)[C@H](CCC(=O)O)NC(=O)[C@@H]1CCCN1C(=O)[C@H](CCCCNC(=O)COCCOCCNC(=O)COCCOCCNC(=O)CC[C@H](NC(=O)CCCCCCCCCCCCCCCCC(=O)O)C(=O)O)NC(=O)[C@H](CCC(=O)O)NC(=O)[C@@H]1CCCN1C(=O)[C@H](C)NC(=O)CC(C)C)C(=O)N[C@@H](CCC(N)=O)C(=O)N[C@@H](CCCNC(=N)N)C(=O)N[C@@H](Cc1ccc(O)cc1)C(=O)N[C@@H](Cc1ccc(O)cc1)C(=O)N[C@H](C(=O)N[C@@H](CO)C(=O)N[C@@H](CC(C)C)C(=O)N[C@@H](CCCNC(=N)N)C(=O)N[C@@H](Cc1c[nH]cn1)C(=O)N[C@@H](Cc1ccc(O)cc1)C(=O)N[C@@H](Cc1ccc(O)cc1)C(=O)N[C@@H](CC(N)=O)C(=O)N[C@@H](Cc1c[nH]c2ccccc12)C(=O)N[C@@H](CC(C)C)C(=O)N[C@H](C(=O)N[C@@H](CCCNC(=N)N)C(=O)N[C@@H](CCC(N)=O)C(=O)N[C@@H](CCCNC(=N)N)C(=O)N[C@@H](Cc1ccc(O)cc1)C(N)=O)[C@@H](C)O)C(C)C` [Compound 84, N{alpha-4}-(3-methylbutanoyl)-N{epsilon-7}-[2-(2-{2-[2-(2-{2-[(4S)-4-carboxy-4-(17-carboxyheptadecanamido)butanamido]ethoxy}ethoxy)acetamido]ethoxy}ethoxy)acetamido]-[4A,7K,9E,17I,18Q,22V,28Y,30W,31L]hPYY (4-36)]: the pKi in assay [1] is 8.92; in assay [2] (setting [3]), 8.18. Further, the Ki in assay [1] turned out to be 3.5 nM.
Turning to `CC(C)CC(=O)N[C@@H](C)C(=O)N1CCC[C@H]1C(=O)N[C@@H](C)C(=O)N[C@@H](CCCCNC(=O)COCCOCCNC(=O)COCCOCCNC(=O)CC[C@H](NC(=O)CCCCCCCCCCCCCCCCC(=O)O)C(=O)O)C(=O)N1CCC[C@H]1C(=O)N[C@@H](CCC(=O)O)C(=O)N[C@@H](CCC(=O)O)C(=O)N[C@@H](CC(=O)O)C(=O)N[C@@H](C)C(=O)N[C@@H](CO)C(=O)N1CCC[C@H]1C(=O)N[C@@H](CCC(=O)O)C(=O)N[C@@H](CCC(=O)O)C(=O)N[C@@H](CC(C)C)C(=O)N[C@@H](CCC(N)=O)C(=O)N[C@@H](CCCNC(=N)N)C(=O)N[C@@H](Cc1ccc(O)cc1)C(=O)N[C@@H](Cc1ccc(O)cc1)C(=O)N[C@H](C(=O)N[C@@H](CO)C(=O)N[C@@H](CC(C)C)C(=O)N[C@@H](CCCNC(=N)N)C(=O)N[C@@H](Cc1c[nH]cn1)C(=O)N[C@@H](Cc1ccc(O)cc1)C(=O)N[C@@H](Cc1ccc(O)cc1)C(=O)N[C@@H](CC(N)=O)C(=O)N[C@@H](Cc1c[nH]c2ccccc12)C(=O)N[C@@H](CC(C)C)C(=O)N[C@H](C(=O)N[C@@H](CCCNC(=N)N)C(=O)N[C@@H](CCC(N)=O)C(=O)N[C@@H](CCCNC(=N)N)C(=O)N[C@@H](Cc1ccc(O)cc1)C(N)=O)[C@@H](C)O)C(C)C` [Compound 203, N{alpha-4}-(3-methylbutanoyl)-N{epsilon-7}-[2-(2-{2-[2-(2-{2-[(4S)-4-carboxy-4-(17-carboxyheptadecanamido)butanamido]ethoxy}ethoxy)acetamido]ethoxy}ethoxy)acetamido]-[4A,6A,7K,9E,18Q,22V,28Y,30W,31L]hPYY (4-36)], the pKi is 9.12 in assay [1], 8.34 in assay [2] (setting [3]) and 7.95 in assay [2] (setting [4]). In addition, in assay [1], the Ki came out at 3 nM.

The values above are taken from US12559529B2, “NPY2 receptor agonists” (Boehringer Ingelheim International GmbH, priority 2019, dated 2026).
